Measured values from ChEMBL document CHEMBL4152224, “The Identification of Potent, Selective, and Orally Available Inhibitors of Ataxia Telangiectasia Mutated (ATM) Kinase: The Discovery of AZD0156 (8-{6-[3-(Dimethylamino)propoxy]pyridin-3-yl}-3-methyl-1-(tetrahydro-2 H-pyran-4-yl)-1,3-dihydro-2 H-imidazo[4,5- c]quinolin-2-one)” (J Med Chem, 2018).
≈ marks a conversion by molar mass, not a printed value.

What was measured:
[1] = Buffer/octanol partition coefficient, log D of the compound at pH 7.4 by shake flask method; assay type: physicochemical
[2] = biological target: Serine-protein kinase ATM (Homo sapiens, UniProt Q13315)
[3] = biological target: Serine/threonine-protein kinase ATR (Homo sapiens, UniProt Q13535)
[4] = Intrinsic clearance in rat hepatocytes assessed per million cells
[5] = Intrinsic clearance in human hepatocytes assessed per million cells
[6] = in vitro; conditions: dog, MDCK-MDR1
Description: Efflux ratio of apparent permeability across basolateral to apical over apical to basolateral side in MDCK cells overexpressing MDR1

[7] = Apparent permeability across apical to basolateral side in MDCK cells overexpressing MDR1; assay type: ADME, cell-based, Canis lupus familiaris; conditions: dog
[8] = Thermodynamic solubility of the compound in 0.1M aqueous phosphate buffer at pH 7.4 after 24 hrs by LC-UV analysis; assay type: physicochemical; conditions: read-out: Therm_solubility
[9] = biological target: Voltage-gated inwardly rectifying potassium channel KCNH2 (Homo sapiens, UniProt Q12809); experiment: Inhibition of human ERG by electrophysiology assay
[10] = Dissociation constant, pKa of the compound; assay type: physicochemical

Serine/threonine-protein kinase ATR, sequence (Q13535 whole entry): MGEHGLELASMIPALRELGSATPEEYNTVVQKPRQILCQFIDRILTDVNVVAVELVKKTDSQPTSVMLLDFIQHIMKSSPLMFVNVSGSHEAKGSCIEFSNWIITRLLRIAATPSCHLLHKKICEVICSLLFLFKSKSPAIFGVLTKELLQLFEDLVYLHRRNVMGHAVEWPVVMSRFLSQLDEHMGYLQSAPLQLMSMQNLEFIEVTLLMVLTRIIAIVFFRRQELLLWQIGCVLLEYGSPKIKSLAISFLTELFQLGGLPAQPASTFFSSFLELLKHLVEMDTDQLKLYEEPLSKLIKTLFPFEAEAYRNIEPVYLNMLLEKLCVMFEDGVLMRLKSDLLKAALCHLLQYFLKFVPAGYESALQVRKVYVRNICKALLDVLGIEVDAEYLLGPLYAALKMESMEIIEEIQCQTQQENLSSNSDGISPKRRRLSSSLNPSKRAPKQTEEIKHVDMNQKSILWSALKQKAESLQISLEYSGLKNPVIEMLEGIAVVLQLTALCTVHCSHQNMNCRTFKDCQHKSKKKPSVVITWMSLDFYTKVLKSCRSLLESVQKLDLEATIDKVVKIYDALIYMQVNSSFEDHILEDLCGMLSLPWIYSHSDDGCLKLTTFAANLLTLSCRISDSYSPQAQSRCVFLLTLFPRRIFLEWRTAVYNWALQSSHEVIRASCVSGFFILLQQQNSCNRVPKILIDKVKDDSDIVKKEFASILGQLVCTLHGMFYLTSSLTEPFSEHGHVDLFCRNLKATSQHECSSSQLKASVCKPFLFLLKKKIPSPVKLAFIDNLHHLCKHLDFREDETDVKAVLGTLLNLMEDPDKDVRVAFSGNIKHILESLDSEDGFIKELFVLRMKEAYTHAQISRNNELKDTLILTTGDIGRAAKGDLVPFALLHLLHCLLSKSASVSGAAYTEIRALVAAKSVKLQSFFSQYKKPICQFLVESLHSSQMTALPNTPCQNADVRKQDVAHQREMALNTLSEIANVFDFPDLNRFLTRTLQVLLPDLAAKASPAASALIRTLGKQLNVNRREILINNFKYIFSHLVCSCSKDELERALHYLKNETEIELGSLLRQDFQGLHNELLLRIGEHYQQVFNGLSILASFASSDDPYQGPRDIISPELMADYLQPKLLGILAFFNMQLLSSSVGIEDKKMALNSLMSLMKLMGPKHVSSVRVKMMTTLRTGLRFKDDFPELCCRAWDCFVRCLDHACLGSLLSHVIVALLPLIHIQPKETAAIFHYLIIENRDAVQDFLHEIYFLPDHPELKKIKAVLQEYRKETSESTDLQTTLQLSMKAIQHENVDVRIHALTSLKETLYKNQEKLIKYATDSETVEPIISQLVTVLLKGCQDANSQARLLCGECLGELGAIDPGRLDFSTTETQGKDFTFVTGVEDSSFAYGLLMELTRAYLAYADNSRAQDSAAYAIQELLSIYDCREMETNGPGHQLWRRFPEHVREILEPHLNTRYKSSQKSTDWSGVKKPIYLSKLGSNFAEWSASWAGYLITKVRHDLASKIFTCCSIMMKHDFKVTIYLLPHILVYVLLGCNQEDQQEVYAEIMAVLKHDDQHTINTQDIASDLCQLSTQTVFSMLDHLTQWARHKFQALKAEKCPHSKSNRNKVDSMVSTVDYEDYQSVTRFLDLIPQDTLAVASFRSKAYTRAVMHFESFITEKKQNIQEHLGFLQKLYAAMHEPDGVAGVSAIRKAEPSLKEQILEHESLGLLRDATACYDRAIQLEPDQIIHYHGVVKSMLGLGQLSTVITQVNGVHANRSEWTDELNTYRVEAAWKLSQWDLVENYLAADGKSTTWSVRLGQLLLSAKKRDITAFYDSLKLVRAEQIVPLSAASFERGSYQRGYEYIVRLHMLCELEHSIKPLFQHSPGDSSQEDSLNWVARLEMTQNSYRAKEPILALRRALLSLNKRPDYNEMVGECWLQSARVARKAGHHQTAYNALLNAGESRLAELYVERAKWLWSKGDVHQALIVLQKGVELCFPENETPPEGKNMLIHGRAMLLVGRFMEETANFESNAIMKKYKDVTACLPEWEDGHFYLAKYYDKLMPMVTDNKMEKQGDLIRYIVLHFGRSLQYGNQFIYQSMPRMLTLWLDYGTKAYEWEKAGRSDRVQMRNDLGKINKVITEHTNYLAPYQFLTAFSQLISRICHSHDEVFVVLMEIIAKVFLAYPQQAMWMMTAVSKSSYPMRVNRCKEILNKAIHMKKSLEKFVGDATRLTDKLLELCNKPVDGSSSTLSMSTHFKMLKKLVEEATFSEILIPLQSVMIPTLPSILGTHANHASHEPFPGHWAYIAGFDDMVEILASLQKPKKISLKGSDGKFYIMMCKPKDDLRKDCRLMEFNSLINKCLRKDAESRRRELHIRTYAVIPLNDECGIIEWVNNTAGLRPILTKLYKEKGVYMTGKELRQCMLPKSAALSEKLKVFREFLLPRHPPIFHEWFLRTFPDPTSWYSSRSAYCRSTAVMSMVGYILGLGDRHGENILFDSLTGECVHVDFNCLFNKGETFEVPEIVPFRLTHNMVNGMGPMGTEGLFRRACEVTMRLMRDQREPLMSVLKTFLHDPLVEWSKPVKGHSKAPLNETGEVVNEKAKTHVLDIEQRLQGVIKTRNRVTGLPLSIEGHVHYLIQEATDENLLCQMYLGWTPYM
Voltage-gated inwardly rectifying potassium channel KCNH2, sequence (Q12809 whole entry): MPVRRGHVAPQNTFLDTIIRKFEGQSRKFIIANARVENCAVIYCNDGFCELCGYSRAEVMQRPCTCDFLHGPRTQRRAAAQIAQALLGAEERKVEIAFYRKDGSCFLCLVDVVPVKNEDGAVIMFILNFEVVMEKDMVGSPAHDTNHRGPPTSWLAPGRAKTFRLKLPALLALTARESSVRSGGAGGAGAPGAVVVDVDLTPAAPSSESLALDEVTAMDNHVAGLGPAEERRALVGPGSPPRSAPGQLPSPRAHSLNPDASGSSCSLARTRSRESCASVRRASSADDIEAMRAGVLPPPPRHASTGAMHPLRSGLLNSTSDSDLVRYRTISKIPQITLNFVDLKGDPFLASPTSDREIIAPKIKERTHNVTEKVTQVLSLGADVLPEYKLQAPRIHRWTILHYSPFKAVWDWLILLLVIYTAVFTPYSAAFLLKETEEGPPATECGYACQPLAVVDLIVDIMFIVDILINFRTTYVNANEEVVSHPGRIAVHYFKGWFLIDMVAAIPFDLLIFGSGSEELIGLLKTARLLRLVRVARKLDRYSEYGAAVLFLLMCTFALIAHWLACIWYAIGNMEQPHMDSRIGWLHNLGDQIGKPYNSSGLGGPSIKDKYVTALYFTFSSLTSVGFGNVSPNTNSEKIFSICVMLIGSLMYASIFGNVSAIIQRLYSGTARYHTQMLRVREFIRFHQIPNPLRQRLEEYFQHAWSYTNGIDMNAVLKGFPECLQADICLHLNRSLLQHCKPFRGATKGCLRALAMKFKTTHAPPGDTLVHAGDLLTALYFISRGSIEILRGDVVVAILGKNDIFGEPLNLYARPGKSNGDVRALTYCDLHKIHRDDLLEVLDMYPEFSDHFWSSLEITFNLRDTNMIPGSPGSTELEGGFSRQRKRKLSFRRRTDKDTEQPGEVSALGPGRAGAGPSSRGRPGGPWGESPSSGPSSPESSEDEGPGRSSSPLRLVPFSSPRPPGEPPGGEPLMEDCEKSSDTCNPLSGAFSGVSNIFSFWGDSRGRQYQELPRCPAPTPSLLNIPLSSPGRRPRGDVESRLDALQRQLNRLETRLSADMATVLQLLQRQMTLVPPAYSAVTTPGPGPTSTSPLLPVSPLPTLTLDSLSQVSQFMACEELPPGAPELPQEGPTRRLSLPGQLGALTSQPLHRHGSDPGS

| Compound | logD [1] | IC50 [2] | IC50 [3] | hepatocyte CLint [4] | hepatocyte CLint [5] | efflux ratio [6] | Papp A→B [7] | solubility thermodynamic at 24 h [8] | IC50 [9] | pKa [10] |
| --- | --- | --- | --- | --- | --- | --- | --- | --- | --- | --- |
| CN(C)CCCOc1ccc(-c2ccc3nnc4c(c3c2)n(C2CCOCC2)c(=O)n4C)cn1 | 0.8 | 0.022 µM | > 30 µM | 2.5 µL/min/1e6 cells | < 1 µL/min/1e6 cells | – | – | – | – | – |
| COCc1ccc(-c2cc3c(N[C@@H](C)c4ccn(C)n4)c(C(N)=O)cnc3cc2F)cn1 | – | – | – | – | – | 8.7 | 12 ×10⁻⁶ cm/s | – | – | – |
| Cn1c(=O)n(C2CCOCC2)c2c3cc(-c4ccc(OCCCN5CCCCC5)nc4)c(F)cc3ncc21 | 2.1 | 0.0012 µM | > 29 µM | 5.1 µL/min/1e6 cells | 5.3 µL/min/1e6 cells | 2.2 | 6.4 ×10⁻⁶ cm/s | 310 µM (≈ 161 µg/mL) | > 33 µM | – |
| CN(C)CCCOc1ccc(-c2cc3c(cc2F)ncc2c3n(C3CCOCC3)c(=O)n2C)cn1 | 1.5 | – | – | 8.3 µL/min/1e6 cells | 6.8 µL/min/1e6 cells | 4.4 | 7.9 ×10⁻⁶ cm/s | > 1000 µM | > 33 µM | – |
| Cn1c(=O)n(C2CCOCC2)c2c3cc(-c4ccc(OCCC[N+](C)(C)[O-])nc4)ccc3ncc21 | – | 0.005 µM | 10 µM | – | – | – | – | – | – | – |
| CO[C@H]1C[C@@H](n2c(=O)n(C)c3cnc4ccc(-c5ccc(OCCCN6CCCCC6)nc5)cc4c32)C1 | 2.2 | – | – | 4 µL/min/1e6 cells | 3 µL/min/1e6 cells | – | 5.4 ×10⁻⁶ cm/s | > 1000 µM | 14 µM | – |
| CN(C)CCCOc1ccc(-c2ccc3ncc4c(c3c2)n([C@@H]2CCCOC2)c(=O)n4C)cn1 | 1.8 | – | > 23 µM | 3.7 µL/min/1e6 cells | 5.6 µL/min/1e6 cells | – | 7.5 ×10⁻⁶ cm/s | > 1000 µM | > 33 µM | – |
| CO[C@H]1C[C@@H](n2c(=O)n(C)c3cnc4ccc(-c5ccc(OCCCN6CCOCC6)nc5)cc4c32)C1 | 1.4 | > 28 µM | > 30 µM | 28 µL/min/1e6 cells | – | – | – | 980 µM (≈ 494 µg/mL) | – | 6.7 |
| Cn1c(=O)n([C@H]2CCCOC2)c2c3cc(-c4ccc(OCCCN5CCCCC5)nc4)c(F)cc3ncc21 | 2.4 | 0.0011 µM | – | 6.2 µL/min/1e6 cells | 4 µL/min/1e6 cells | 1.4 | 7.1 ×10⁻⁶ cm/s | 330 µM (≈ 171 µg/mL) | 18 µM | – |
| CN(C)CCCOc1ccc(-c2ccc3ncc4c(c3c2)n([C@H]2C[C@@H](O)C2)c(=O)n4C)cn1 | 1.1 | – | – | 2.7 µL/min/1e6 cells | 3.5 µL/min/1e6 cells | > 100 | < 0.2 ×10⁻⁶ cm/s | > 1000 µM | > 33 µM | – |
| CO[C@H]1C[C@@H](n2c(=O)n(C)c3cnc4cc(F)c(-c5ccc(CS(C)(=O)=O)nc5)cc4c32)C1 | 1.3 | 0.16 µM | > 16 µM | 2.4 µL/min/1e6 cells | – | 2.4 | 14 ×10⁻⁶ cm/s | 18 µM (≈ 8.47 µg/mL) | 14 µM | – |
| COCc1ccc(-c2cc3c(cc2F)ncc2c3n([C@H]3C[C@@H](O)C3)c(=O)n2C)cn1 | 2 | 0.14 µM | > 30 µM | 6 µL/min/1e6 cells | 2.7 µL/min/1e6 cells | 2.6 | 14 ×10⁻⁶ cm/s | 270 µM (≈ 110 µg/mL) | 15 µM | – |
| O=c1[nH]c2cnc3ccc(-c4cccnc4)cc3c2n1C1CCOCC1 | 2.4 | – | 0.051 µM | – | – | – | – | 12 µM (≈ 4.16 µg/mL) | – | – |
| CO[C@H]1C[C@@H](n2c(=O)n(C)c3cnc4cc(F)c(-c5ccc(NC(=O)CCCN(C)C)nc5)cc4c32)C1 | 1.1 | 0.0082 µM | > 30 µM | 7 µL/min/1e6 cells | 6.5 µL/min/1e6 cells | 77 | 0.4 ×10⁻⁶ cm/s | 870 µM (≈ 441 µg/mL) | 18 µM | – |
| CO[C@H]1C[C@@H](n2c(=O)n(C)c3cnc4ccc(-c5ccc(OCCCN6CCC6)nc5)cc4c32)C1 | 1.4 | – | > 24 µM | 2.5 µL/min/1e6 cells | 3.3 µL/min/1e6 cells | 7.8 | 3.5 ×10⁻⁶ cm/s | 770 µM (≈ 365 µg/mL) | > 33 µM | – |
| CC(C)n1c(=O)n(C2CCOCC2)c2c3cc(-c4cccnc4)ccc3ncc21 | 2.9 | > 30 µM | > 27.6 µM | – | – | – | – | 41 µM (≈ 15.9 µg/mL) | – | – |
| COCc1ccc(-c2cc3c(cc2F)ncc2c3n([C@@H](C)C3CCOCC3)c(=O)n2C)cn1 | 2.7 | 0.49 µM | > 30 µM | 1.6 µL/min/1e6 cells | 22 µL/min/1e6 cells | 0.8 | 27 ×10⁻⁶ cm/s | > 1000 µM | 15 µM | – |

| Compound | logD [1] | IC50 [2] | IC50 [3] | hepatocyte CLint [4] | hepatocyte CLint [5] | efflux ratio [6] | Papp A→B [7] | solubility thermodynamic at 24 h [8] | IC50 [9] | pKa [10] |
| --- | --- | --- | --- | --- | --- | --- | --- | --- | --- | --- |
| CN(C)CCCOc1ccc(-c2ccc3ncc4c(c3c2)n(C2COC2)c(=O)n4C)cn1 | 0.7 | – | – | 7.8 µL/min/1e6 cells | < 1 µL/min/1e6 cells | 9.8 | 3.2 ×10⁻⁶ cm/s | 52 µM (≈ 22.5 µg/mL) | > 33 µM | – |
| CO[C@H]1C[C@@H](n2c(=O)n(C)c3cnc4cc(F)c(-c5ccc(OCCCN(C)C)nc5)cc4c32)C1 | 1.8 | – | – | 6.6 µL/min/1e6 cells | 7.9 µL/min/1e6 cells | 6.2 | 6.8 ×10⁻⁶ cm/s | > 980 µM | > 33 µM | 9.3 |
| CO[C@H]1C[C@@H](n2c(=O)n(C)c3cnc4cc(F)c(-c5ccc(C(=O)NCCN(C)C)nc5)cc4c32)C1 | 1.5 | 0.13 µM | > 30 µM | 2.9 µL/min/1e6 cells | 4 µL/min/1e6 cells | 11 | 2.5 ×10⁻⁶ cm/s | 980 µM (≈ 483 µg/mL) | > 33 µM | – |
| CO[C@H]1C[C@@H](n2c(=O)n(C)c3cnc4ccc(-c5ccc(OCCCN6CCCC6)nc5)cc4c32)C1 | 1.8 | 0.00017 µM | > 24 µM | < 1.3 µL/min/1e6 cells | 5.3 µL/min/1e6 cells | 9.4 | 2.5 ×10⁻⁶ cm/s | > 1100 µM | > 33 µM | – |
| CNCCCOc1ccc(-c2ccc3ncc4c(c3c2)n([C@H]2C[C@@H](OC)C2)c(=O)n4C)cn1 | 0.4 | – | – | 4.8 µL/min/1e6 cells | 4.4 µL/min/1e6 cells | 41 | 0.65 ×10⁻⁶ cm/s | 930 µM (≈ 416 µg/mL) | > 33 µM | 10.3 |
| CO[C@H]1C[C@@H](n2c(=O)n(C)c3cnc4cc(F)c(-c5ccc(OCCCN(C)C)nc5F)cc4c32)C1 | 2.1 | – | – | 9 µL/min/1e6 cells | 14 µL/min/1e6 cells | 2.5 | 10 ×10⁻⁶ cm/s | > 1000 µM | 22 µM | – |
| CO[C@H]1C[C@@H](n2c(=O)n(C)c3cnc4cc(F)c(-c5ccc(N(C)CCN(C)C)nc5)cc4c32)C1 | 2.2 | 0.23 µM | > 30 µM | 18 µL/min/1e6 cells | 5.1 µL/min/1e6 cells | – | 6.3 ×10⁻⁶ cm/s | > 1000 µM | – | – |
| COCc1ccc(-c2cc3c(cc2F)ncc2c3n([C@H]3CC[C@H](OC)CC3)c(=O)n2C)cn1 | 3.2 | 0.24 µM | > 26 µM | 10 µL/min/1e6 cells | 10 µL/min/1e6 cells | 0.6 | 20 ×10⁻⁶ cm/s | 84 µM (≈ 37.8 µg/mL) | 27 µM | – |
| COCc1ccc(-c2ccc3ncc4c(c3c2)n(C2CCOCC2)c(=O)n4C)cn1 | 2.3 | – | > 13 µM | 63 µL/min/1e6 cells | < 3 µL/min/1e6 cells | – | 32 ×10⁻⁶ cm/s | 19 µM (≈ 7.68 µg/mL) | > 33 µM | – |
| COCc1ccc(-c2cc3c(cc2F)ncc2c3n(C3CCOCC3)c(=O)n2C)cn1 | 2.4 | 0.45 µM | > 20 µM | 7.5 µL/min/1e6 cells | < 4 µL/min/1e6 cells | 0.8 | 43 ×10⁻⁶ cm/s | 99 µM (≈ 41.8 µg/mL) | 27 µM | – |
| CN(C)CCCOc1ccc(-c2ccc3ncc4c(c3c2)n([C@H]2CCCOC2)c(=O)n4C)cn1 | 1.8 | – | – | 3 µL/min/1e6 cells | 6.1 µL/min/1e6 cells | – | 6.5 ×10⁻⁶ cm/s | > 1000 µM | 27 µM | – |
| CO[C@H]1C[C@@H](n2c(=O)n(C)c3cnc4cc(F)c(-c5ccc(NCCN(C)C)nc5)cc4c32)C1 | 1.7 | 0.006 µM | > 30 µM | 9.6 µL/min/1e6 cells | 2.8 µL/min/1e6 cells | 11 | 3.4 ×10⁻⁶ cm/s | > 1000 µM | 24 µM | – |
| CCC(CC)CNc1c(C(N)=O)cnc2cc(F)c(-c3cnc(NCCN4CCCC4)nc3)cc12 | 2.8 | 0.0086 µM | > 30 µM | – | – | 28 | 0.8 ×10⁻⁶ cm/s | – | – | – |
| COCc1ccc(-c2cc3c(cc2F)ncc2c3n([C@H]3C[C@H](OC)C3)c(=O)n2C)cn1 | 3 | 0.16 µM | > 28 µM | 4.3 µL/min/1e6 cells | 8.4 µL/min/1e6 cells | 0.6 | 28 ×10⁻⁶ cm/s | 49 µM (≈ 20.7 µg/mL) | 8.9 µM | – |
| CO[C@H]1C[C@@H](n2c(=O)n(C)c3cnc4ccc(-c5ccc(OCCCN(C)C)nc5F)cc4c32)C1 | 2 | – | – | 9.3 µL/min/1e6 cells | 15 µL/min/1e6 cells | – | 4.2 ×10⁻⁶ cm/s | > 1100 µM | > 33 µM | – |
| CO[C@H]1C[C@@H](n2c(=O)n(C)c3cnc4cc(F)c(-c5ccc(CO)nc5)cc4c32)C1 | 2 | 0.23 µM | 15 µM | 5 µL/min/1e6 cells | – | 1.1 | 29 ×10⁻⁶ cm/s | 23 µM (≈ 9.39 µg/mL) | 23 µM | – |
| CN(C)CCCOc1ccc(-c2ccc3ncc4c(c3n2)n(C2CCOCC2)c(=O)n4C)cn1 | 1.6 | 0.0017 µM | 2 µM | 9.2 µL/min/1e6 cells | 12.8 µL/min/1e6 cells | – | – | – | – | – |
